Measured values as given in US7495027B2, “3-aryl-4-hydroxyfuranone compounds and the human and animal health use thereof” (Wyeth, priority 2003, dated 2009).

What was measured:
[1] = target: T1, S. aureus UDP-N-acetylglucosamine enolpyruvoyl transferase, MurA (Staphylococcus aureus, UniProt P84058); assay: Inhibitory activity against MurA (S. aureus); type: biochemical; settings: (S) S. aureus enzyme
T1 sequence (P84058 1-421): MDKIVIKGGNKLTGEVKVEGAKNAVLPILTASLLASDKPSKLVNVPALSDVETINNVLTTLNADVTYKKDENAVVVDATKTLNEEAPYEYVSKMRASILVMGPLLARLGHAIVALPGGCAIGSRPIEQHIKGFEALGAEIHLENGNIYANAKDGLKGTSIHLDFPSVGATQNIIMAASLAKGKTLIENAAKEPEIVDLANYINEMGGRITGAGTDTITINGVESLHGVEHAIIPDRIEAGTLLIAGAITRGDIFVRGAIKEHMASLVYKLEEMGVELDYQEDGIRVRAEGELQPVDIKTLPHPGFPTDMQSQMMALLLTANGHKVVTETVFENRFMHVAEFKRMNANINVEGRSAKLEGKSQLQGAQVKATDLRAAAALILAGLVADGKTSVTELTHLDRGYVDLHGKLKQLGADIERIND
Procedure: Evaluation of the Inhibitory Activity of Test Compounds Against Enzymes which Catalyze Bacterial Cell Wall Biosynthesis
S. aureus and E. coli UDP-N-acetylglucosamine enolpyruvoyl transferase, MurA
Preparation of Enzyme Solution:
The enzyme solution is prepared by admixing the following: 50 mM Tris/HCl pH 8.0, […] 1 M Tris, 5 mM DTT, […] 1 M DTT, 20% Glycerol 4 ml 50% Glycerol, add water to 10 ml.
Preparation of Stop Solution:
The stop solution is prepared by mixing the following: 4.2% ammonium molybdate in 4N HCl, 8.4 g/200 ml 4N HCl, 0.045% malachite green, 90 mg/200 ml water, then stir 1 part ammonium molybdate with 2 parts malachite green for 30 min.
A procedure similar to that described by C. T. Walsh in Biochemistry 33, 10646-10651, is used to evaluate the inhibitory activity of test compounds against MurA, the enzyme which catalyzes the first step of bacterial cell wall biosynthesis. Experiments are performed by adding a solution of test compound (in a mixture of dimethylsulfoxide and water) and an enzyme solution to a well. After a pre-incubation period of 10 mintues at 37° C., Tris/BME buffer and assay buffer are added. A start point optical density (OD0) reading is taken at 340 nm immediately following the addition of assay buffer. After incubation for 1 hr at 37° C., the stop solution is added and the color is allowed to develop for 30 minutes. An end point OD1 reading at […] is then taken. […]

Row | SMILES | IC50 [1] [µM] | melting point [°C]
1 | O=Cc1cccc(C2=C(O)/C(=C/c3cccc4ccccc34)OC2=O)c1 [Example 76] | 17.5 | 220 to 221
2 | COc1cccc(C2=C(O)/C(=C/c3cccc4ccccc34)OC2=O)c1 [Example 72] | > 72.6 | 214 to 216
3 | O=C1O/C(=C\c2cccc3ccccc23)C(O)=C1c1ccc(C(F)(F)F)cc1 [Example 71] | > 65.4 | 245 to 247
